How the values were obtained:
Type in all cases: in vivo
[1] = system: pigweed (Amaranthus retroflexus); test: Test A preemergence, visual injury rating
Outline: (§1)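 Visual injury scored 0–100 (100 = complete control) against untreated controls about 10 days after treatment in a greenhouse. Test chemicals, formulated with surfactant in non-phytotoxic solvent, were sprayed on soil preemergence or on 2-10 cm, one- to two-leaf plants postemergence.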

[2] = system: Italian ryegrass (Lolium multiflorum); test: Test A preemergence, visual injury rating
Outline: as §1

[3] = system: ragweed (common ragweed, Ambrosia elatior); test: Test A preemergence, visual injury rating
Outline: as §1

[4] = system: kochia (Kochia scoparia); test: Test A preemergence, visual injury rating
Outline: as §1

[5] = system: giant foxtail (Setaria faberii); test: Test A preemergence, visual injury rating
Outline: as §1

[6] = system: barnyardgrass (Echinochloa crus-galli); test: Test A preemergence, visual injury rating
Outline: as §1

[7] = system: crabgrass, large (large crabgrass, Digitaria sanguinalis); test: Test C postemergence, plant response rating; details: for Crabgrass, Large plant response rating: scale 0 to 100 (0 no effect, 100 complete control)
Outline: (§2)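 Greenhouse plants rated visually against untreated controls 13–15 d after treatment, scale 0 = no effect to 100 = complete control. Postemergence sprays went onto potted plants 2–18 cm tall (1–4 leaves); preemergence sprays onto soil freshly sown in loam–sand or silt loam, chemicals formulated in non-phytotoxic solvent with surfactant.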

[8] = system: nutsedge, yellow (yellow nutsedge, Cyperus esculentus); test: Test C postemergence, plant response rating; details: for Nutsedge, Yellow plant response rating: scale 0 to 100 (0 no effect, 100 complete control)
Outline: as §2

[9] = system: galium (catchweed bedstraw, Galium aparine); test: Test C postemergence, plant response rating; details: for Galium plant response rating: scale 0 to 100 (0 no effect, 100 complete control)
Outline: as §2

[10] = system: wheat (winter wheat, Triticum aestivum); test: Test C postemergence, plant response rating; details: for Wheat plant response rating: 125 g ai/ha, scale 0 to 100 (0 no effect, 100 complete control)
Outline: as §2

[11] = system: oilseed rape (Brassica napus); test: Test C postemergence, plant response rating; details: for Oilseed Rape plant response rating: scale 0 to 100 (0 no effect, 100 complete control)
Outline: as §2

[12] = system: blackgrass (Alopecurus myosuroides); test: Test C postemergence, plant response rating; details: for Plant response rating, Blackgrass: scale 0 to 100; for Blackgrass plant response rating: scale 0 to 100 (0 no effect, 100 complete control)
Outline: as §2

[13] = system: morningglory (Ipomoea coccinea); test: Test C postemergence, plant response rating; details: for Morningglory plant response rating: scale 0 to 100 (0 no effect, 100 complete control)
Outline: as §2

[14] = system: kochia (Kochia scoparia); test: Test C postemergence, plant response rating; details: for Kochia plant response rating: scale 0 to 100 (0 no effect, 100 complete control)
Outline: as §2

[15] = system: barnyardgrass (Echinochloa crus-galli); test: Test C postemergence, plant response rating; details: for Plant response rating, Barnyardgrass: scale 0 to 100; for Barnyardgrass plant response rating: scale 0 to 100 (0 no effect, 100 complete control)
Outline: as §2

[16] = system: corn (Zea mays); test: Test C postemergence, plant response rating; details: for Corn plant response rating: scale 0 to 100 (0 no effect, 100 complete control)
Outline: as §2

[17] = system: barnyardgrass (Echinochloa crus-galli); test: Test B flooded paddy test, plant response rating; details: 250 g ai/ha; Flood; scale of 0 to 100 where 0 is no effect and 100 is complete control; 13 to 15 days
Outline: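 Greenhouse pots flooded to 3 cm above soil at time of treatment received compound via the water, which stayed at that level.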

[18] = 31 g ai/ha, 0 to 100 scale, 0 no effect, 100 complete control
[19] = 125 g ai/ha, 0 to 100 scale (0 no effect, 100 complete control)

## O=C(CCC(F)(F)F)c1c(Br)cccc1Oc1ncc(Cl)cn1 [Compound 92]
[1]; [18]
  Plant response rating, Pigweed: 100
[1]; [19]
  Pigweed plant response rating: 100
[2]; [18]
  Plant response rating, Ryegrass, Italian: 30
[2]; [19]
  Ryegrass, Italian plant response rating: 80
[3]; [18]
  Plant response rating, Ragweed: 0
[3]; [19]
  Ragweed plant response rating: 0
[4]; [18]
  Plant response rating, Kochia: 90
[4]; [19]
  Kochia plant response rating: 90
[5]; [18]
  Plant response rating, Foxtail, Giant: 100
[5]; [19]
  Foxtail, Giant plant response rating: 100
[6]; [18]
  Plant response rating, Barnyardgrass: 70
[6]; [19]
  Barnyardgrass plant response rating: 100
[7]; 16 g ai/ha, scale of 0 to 100
  Plant response rating, Crabgrass, Large: 20
[7]; 31 g ai/ha, scale 0 to 100
  Plant response rating, Crabgrass, Large: 10
[7]; 62 g ai/ha
  Crabgrass, Large plant response rating: 25
[7]; 125 g ai/ha
  Crabgrass, Large plant response rating: 35
[8]; 16 g ai/ha, scale of 0 to 100
  Plant response rating, Nutsedge, Yellow: 0
[8]; 31 g ai/ha, scale 0 to 100
  Plant response rating, Nutsedge, Yellow: 10
[8]; 62 g ai/ha
  Nutsedge, Yellow plant response rating: 10
[8]; 125 g ai/ha
  Nutsedge, Yellow plant response rating: 20
[9]; 16 g ai/ha, scale of 0 to 100
  Plant response rating, Galium: 80
[9]; 31 g ai/ha, scale 0 to 100
  Plant response rating, Galium: 85
[9]; 62 g ai/ha
  Galium plant response rating: 100
[9]; 125 g ai/ha
  Galium plant response rating: 100
[10]; 16 g ai/ha, scale of 0 to 100
  Plant response rating, Wheat: 0
[10]; 31 g ai/ha, scale 0 to 100
  Plant response rating, Wheat: 0
[10]
  Wheat plant response rating: 10
[11]; 16 g ai/ha, scale of 0 to 100
  Plant response rating, Oilseed Rape: 5
[11]; 31 g ai/ha, scale 0 to 100
  Plant response rating, Oilseed Rape: 50
[11]; 62 g ai/ha
  Oilseed Rape plant response rating: 50
[11]; 125 g ai/ha
  Oilseed Rape plant response rating: 70
[12]; 16 g ai/ha
  Plant response rating, Blackgrass: 5
[12]; 31 g ai/ha
  Plant response rating, Blackgrass: 10
[12]; 62 g ai/ha
  Blackgrass plant response rating: 5
[12]; 125 g ai/ha
  Blackgrass plant response rating: 20
[13]; 16 g ai/ha, scale of 0 to 100
  Plant response rating, Morningglory: 20
[13]; 31 g ai/ha, scale 0 to 100
  Plant response rating, Morningglory: 85
[13]; 62 g ai/ha
  Morningglory plant response rating: 65
[13]; 125 g ai/ha
  Morningglory plant response rating: 85
[14]; 16 g ai/ha, scale of 0 to 100
  Plant response rating, Kochia: 100
[14]; 31 g ai/ha, scale 0 to 100
  Plant response rating, Kochia: 100
[14]; 62 g ai/ha
  Kochia plant response rating: 100
[14]; 125 g ai/ha
  Kochia plant response rating: 100
[15]; 16 g ai/ha
  Plant response rating, Barnyardgrass: 10
[15]; 31 g ai/ha
  Plant response rating, Barnyardgrass: 10
[15]; 62 g ai/ha
  Barnyardgrass plant response rating: 15
[15]; 125 g ai/ha
  Barnyardgrass plant response rating: 20
[16]; 16 g ai/ha, scale of 0 to 100
  Plant response rating, Corn: 10
[16]; 31 g ai/ha, scale 0 to 100
  Plant response rating, Corn: 20
[16]; 62 g ai/ha
  Corn plant response rating: 15
[16]; 125 g ai/ha
  Corn plant response rating: 20
[17]
  Plant response rating, Barnyardgrass: 25

## O=C(CCCC(F)(F)F)c1c(Cl)cccc1Oc1ncc(Cl)cn1 [Compound 143]
[2]; [18]
  Plant response rating, Ryegrass, Italian: 20
[2]; [19]
  Plant response rating, Ryegrass, Italian: 70
[3]; [18]
  Plant response rating, Ragweed: 0
[3]; [19]
  Plant response rating, Ragweed: 0
[4]; [18]
  Plant response rating, Kochia: 100
[4]; [19]
  Plant response rating, Kochia: 100
[5]; [18]
  Plant response rating, Foxtail, Giant: 100
[5]; [19]
  Plant response rating, Foxtail, Giant: 100
[6]; [18]
  Plant response rating, Barnyardgrass: 20
[6]; [19]
  Plant response rating, Barnyardgrass: 100
[7]; 16 g ai/ha, scale of 0 to 100
  Plant response rating, Crabgrass, Large: 5
[7]; 31 g ai/ha, scale 0 to 100
  Plant response rating, Crabgrass, Large: 5
[7]; 62 g ai/ha
  Crabgrass, Large plant response rating: 15
[7]; 125 g ai/ha
  Crabgrass, Large plant response rating: 30
[8]; 16 g ai/ha, scale of 0 to 100
  Plant response rating, Nutsedge, Yellow: 0
[8]; 31 g ai/ha, scale 0 to 100
  Plant response rating, Nutsedge, Yellow: 5
[8]; 62 g ai/ha
  Nutsedge, Yellow plant response rating: 5
[8]; 125 g ai/ha
  Nutsedge, Yellow plant response rating: 25
[9]; 16 g ai/ha, scale of 0 to 100
  Plant response rating, Galium: 75
[9]; 31 g ai/ha, scale 0 to 100
  Plant response rating, Galium: 85
[9]; 62 g ai/ha
  Galium plant response rating: 80
[9]; 125 g ai/ha
  Galium plant response rating: 95
[10]; 16 g ai/ha, scale of 0 to 100
  Plant response rating, Wheat: 5
[10]; 31 g ai/ha, scale 0 to 100
  Plant response rating, Wheat: 10
[10]
  Wheat plant response rating: 30
[11]; 16 g ai/ha, scale of 0 to 100
  Plant response rating, Oilseed Rape: 85
[11]; 31 g ai/ha, scale 0 to 100
  Plant response rating, Oilseed Rape: 80
[11]; 62 g ai/ha
  Oilseed Rape plant response rating: 95
[11]; 125 g ai/ha
  Oilseed Rape plant response rating: 100
[12]; 16 g ai/ha
  Plant response rating, Blackgrass: 10
[12]; 31 g ai/ha
  Plant response rating, Blackgrass: 15
[12]; 62 g ai/ha
  Blackgrass plant response rating: 15
[12]; 125 g ai/ha
  Blackgrass plant response rating: 40
[13]; 16 g ai/ha, scale of 0 to 100
  Plant response rating, Morningglory: 15
[13]; 31 g ai/ha, scale 0 to 100
  Plant response rating, Morningglory: 70
[13]; 62 g ai/ha
  Morningglory plant response rating: 50
[13]; 125 g ai/ha
  Morningglory plant response rating: 65
[14]; 16 g ai/ha, scale of 0 to 100
  Plant response rating, Kochia: 98
[14]; 31 g ai/ha, scale 0 to 100
  Plant response rating, Kochia: 100
[14]; 62 g ai/ha
  Kochia plant response rating: 100
[14]; 125 g ai/ha
  Kochia plant response rating: 100
[15]; 16 g ai/ha
  Plant response rating, Barnyardgrass: 5
[15]; 31 g ai/ha
  Plant response rating, Barnyardgrass: 10
[15]; 62 g ai/ha
  Barnyardgrass plant response rating: 10
[15]; 125 g ai/ha
  Barnyardgrass plant response rating: 20
[16]; 16 g ai/ha, scale of 0 to 100
  Plant response rating, Corn: 15
[16]; 31 g ai/ha, scale 0 to 100
  Plant response rating, Corn: 20
[16]; 62 g ai/ha
  Corn plant response rating: 20
[16]; 125 g ai/ha
  Corn plant response rating: 30
[17]
  Plant response rating, Barnyardgrass: 50
